Measured values reported in article PMC6150245 (Molecules : A Journal of Synthetic Chemistry and Natural …, 2017).
Converted amounts (≈) assume the structure as drawn. Bridge positions count the residues as written; N and C are the ends. Peptide text beside a SMILES is read from it. I, II: the chains in the order shown.

Legend:
[1] = Serum stability assay; type: in vitro ADME; details: 25% human male serum, 37 °C
Protocol: Crude peptides were purified by semi-preparative HPLC on a Shimadzu system (Tokyo, Japan) using a C18 reversed phase column (10 × 250 mm, Phenomenex, Torrance, CA, USA). Solvent A contained 0.045% trifluoroacetic acid (TFA) in water. Elution was achieved using a linear gradient (5–35%) of solvent B (0.036% TFA in acetonitrile) for 120 min at 5 mL/min. The purity of the peptides was determined by analytical HPLC on a Shimadzu system using a C18 column (4.6 × 150 mm, Phenomenex, Torrance, CA, USA) with a linear gradient of solvent B (5–95%) for 30 min at 1 mL/min. Liquid chromatography-mass spectrometry (LC/MS) was performed using a C18 column (2.0 × 30 mm, Shimadzu) attached to analytical HPLC and an amaZon ion trap mass spectrometer (Bruker Daltonics) using ESI. Peptides were eluted using a linear gradient of solvent B (5–95%) for 15 min at 0.2 mL/min.
Peptide stability assays were performed in diluted serum as previously described with minor modifications. First, 2 mL of 25% human male serum was centrifuged at 3000× g for 10 min; the supernatant was collected and incubated for 15 min at 37 °C. Next, peptides were added to the serum to a final concentration of 100 µM. Then, 200 µL of samples were collected at different time points during the assays, which were performed in duplicate. Analyses were performed by LC/MS and analytical HPLC, as described above.

[2] = tested on: S. aureus ATCC25923; type: cell-based, Staphylococcus aureus; details: for MIC: S. aureus ATCC25923, CAMHB, 24 h, 37 °C, duplicate; for MBC: S. aureus ATCC25923, sub-culture on MH agar, 99.9% death
Protocol: (§1) After confirming antibacterial activity, the peptides were tested against gram-positive and gram-negative multidrug-resistant bacteria, including strains of clinical origin. The peptides, p-BthTX-I, des-Lys^12/(p-BthTX-I)2, and Lys^13-(p-BthTX-I)2 were serially diluted (512–1 μM) in cation-adjusted BBL MH II broth (CAMHB; Becton, Dickson and Co., Sparks, MD, USA) as described by CLSI. Bacteria at 5.0 × 10^5 CFU/mL were added to the media and incubated for 24 h at 37 °C. […] Assays were performed in duplicates, and sterile broth was used as the negative control. To determine the minimal bactericidal concentration (MBC), 100 µL from each well of the MIC assay plates that inhibited bacterial growth were sub-cultured onto MH agar (MHA) plates. […] If the ratio of MBC/MIC was >4, the activity of the peptide was considered bacteriostatic, as described previously.

[3] = tested on: S. aureus SA16; type: cell-based, Staphylococcus aureus; details: S. aureus SA16 (MRSA); for MBC: sub-culture on MH agar, 99.9% death
Protocol: as §1

[4] = tested on: S. aureus SA33; type: cell-based, Staphylococcus aureus; details: for MBC: S. aureus SA33, sub-culture on MH agar, 99.9% death
Protocol: as §1

[5] = tested on: S. aureus SA88; type: cell-based, Staphylococcus aureus; details: for MIC: S. aureus SA88 (MRSA, daptomycin heteroresistant), CAMHB, 24 h, 37 °C, duplicate; for MBC: S. aureus SA88, sub-culture on MH agar, 99.9% death
Protocol: as §1

[6] = tested on: E. coli ATCC25922; assay: MIC, microdilution in MH broth (initial screening); type: cell-based, Escherichia coli; details: 24 h, 37 °C, resazurin, triplicate
Protocol: The minimum inhibitory concentrations (MIC) were determined following the Clinical and Laboratory Standards Institute (CLSI) recommendations. Antibacterial and antifungal activity tests were performed using the microdilution method. For initial screening, peptides were tested against C. albicans ATCC18804, E. coli ATCC25922, and S. aureus ATCC25923. Briefly, bacterial cells in MH broth (80 μL aliquots containing 1.5 × 10^7 CFU) were incubated with synthetic peptides (serial dilution from 512 to 1 μM) dissolved in Milli-Q water. After incubation for 24 h at 37 °C, the microtiter plates were analyzed visually by addition of resazurin. For the antifungal assays, the culture medium was RPMI 1640 buffered with L-glutamine (pH 7.2), 0.165 M morpholinepropanesulfonic acid (MOPS), and 2% glucose. Cell suspensions (final concentration of 1 × 10^3–2.5 × 10^3 CFU/mL) were inoculated on a microdilution plate previously prepared with serially diluted synthetic peptides (128–1 μM). The plates were incubated for 48 h at 37 °C. Each assay was performed in triplicates. Additionally, amphotericin B and fluconazole were used as the control drugs. MIC was defined as the lowest concentration of peptide at which no growth was detected.

[7] = tested on: E. faecium HSJRP8; type: cell-based, Enterococcus faecium; details: for MIC: E. faecium HSJRP8 (daptomycin resistant), CAMHB, 24 h, 37 °C, duplicate; for MBC: E. faecium HSJRP8, sub-culture on MH agar, 99.9% death
Protocol: as §1

[8] = tested on: E. faecium VRE16; type: cell-based, Enterococcus faecium; details: for MIC: E. faecium VRE16 (vancomycin resistant), CAMHB, 24 h, 37 °C, duplicate; for MBC: E. faecium VRE16, sub-culture on MH agar, 99.9% death
Protocol: as §1

[9] = tested on: human red blood cells; assay: Hemolysis assay; type: cell-based; details: 1% (v/v) human erythrocytes in Tris-saline pH 7.4, 1 h, 37 °C, absorbance 405 nm, triplicate
Protocol: Peptide hemolysis assays were performed as previously described by Castro et al.. Briefly, freshly prepared human red blood cells (RBCs) were washed three times with 0.01 M Tris-HCl (pH 7.4) containing 0.15 M NaCl (Tris-saline). A suspension of 1% (v/v) erythrocytes was made with packed RBCs resuspended in Tris-saline. Peptides were dissolved in Tris-saline at an initial concentration of […] and serially diluted in the same buffer to determine the concentration that triggered 50% hemolysis (HC50). As the positive control (100% lysis), 1% (v/v) Triton X-100 solution was used. After 1 h of incubation at 37 °C, the samples were centrifuged at 3000× g for 5 min. Then, 100 µL aliquots of the supernatant were transferred to 96-well microplates, and the absorbance was determined at 405 nm. The assay was performed in triplicates.

[10] = tested on: K. pneumoniae ATCCBAA1705; type: cell-based, Klebsiella pneumoniae; details: for MIC: K. pneumoniae ATCCBAA1705 (KPC), CAMHB, 24 h, 37 °C, duplicate; for MBC: K. pneumoniae ATCCBAA1705, sub-culture on MH agar, 99.9% death
Protocol: as §1

[11] = tested on: K. pneumoniae NDM-1; type: cell-based, Klebsiella pneumoniae; details: for MIC: K. pneumoniae NDM-1, CAMHB, 24 h, 37 °C; for MBC: K. pneumoniae NDM-1, sub-culture on MH agar, 99.9% death
Protocol: as §1

Compound	MIC [2]	MBC [2]	MBC [3]	MBC [4]	MIC [5]	MBC [5]	MIC [6]	MIC [7]	MBC [7]	MIC [8]	MBC [8]	HC50 (peptide concentration that produced 50% hemolysis) [9]	MIC [10]	MBC [10]	MIC [11]	MBC [11]	further results
CC(C)C[C@H](NC(=O)[C@H](Cc1c[nH]cn1)NC(=O)[C@H](Cc1ccc(O)cc1)NC(=O)[C@H](CCCNC(=N)N)NC(=O)[C@H](Cc1ccc(O)cc1)NC(=O)[C@H](CCCCN)NC(=O)[C@@H](N)CCCCN)C(=O)N[C@@H](CCCCN)C(=O)N1CCC[C@H]1C(=O)N[C@@H](Cc1ccccc1)C(=O)N[C@@H](CSSC[C@H](NC(=O)[C@H](Cc1ccccc1)NC(=O)[C@@H]1CCCN1C(=O)[C@H](CCCCN)NC(=O)[C@H](CC(C)C)NC(=O)[C@H](Cc1c[nH]cn1)NC(=O)[C@H](Cc1ccc(O)cc1)NC(=O)[C@H](CCCNC(=N)N)NC(=O)[C@H](Cc1ccc(O)cc1)NC(=O)[C@H](CCCCN)NC(=O)[C@@H](N)CCCCN)C(=O)N[C@@H](CCCCN)C(=O)N[C@@H](CCCCN)C(=O)O)C(=O)N[C@@H](CCCCN)C(=O)N[C@@H](CCCCN)C(=O)O [(p-BthTX-I)2]	512 µM (≈ 1780 µg/mL)	512 µM (≈ 1780 µg/mL)	512 µM (≈ 1780 µg/mL)	512 µM (≈ 1780 µg/mL)	256 µM (≈ 890 µg/mL)	256 µM (≈ 890 µg/mL)	4 µM (≈ 13.9 µg/mL)	8 µM (≈ 27.8 µg/mL)	>512 µM	32 µM (≈ 111 µg/mL)	>512 µM	>128 µM	256 µM (≈ 890 µg/mL)	512 µM (≈ 1780 µg/mL)	256 µM (≈ 890 µg/mL)	512 µM (≈ 1780 µg/mL)	Incubation time after which the peptide was completely degraded in human serum ([1]; peptide 100 µM, analytical HPLC (C18) and LC/MS, duplicate): 30 min
CC(C)C[C@H](NC(=O)[C@H](Cc1c[nH]cn1)NC(=O)[C@H](Cc1ccc(O)cc1)NC(=O)[C@H](CCCNC(=N)N)NC(=O)[C@H](Cc1ccc(O)cc1)NC(=O)[C@H](CCCCN)NC(=O)[C@@H](N)CCCCN)C(=O)N[C@@H](CCCCN)C(=O)N1CCC[C@H]1C(=O)N[C@@H](Cc1ccccc1)C(=O)N[C@@H](CSSC[C@H](NC(=O)[C@H](Cc1ccccc1)NC(=O)[C@@H]1CCCN1C(=O)[C@H](CCCCN)NC(=O)[C@H](CC(C)C)NC(=O)[C@H](Cc1c[nH]cn1)NC(=O)[C@H](Cc1ccc(O)cc1)NC(=O)[C@H](CCCNC(=N)N)NC(=O)[C@H](Cc1ccc(O)cc1)NC(=O)[C@H](CCCCN)NC(=O)[C@@H](N)CCCCN)C(=O)O)C(=O)O [des-Lys^12/Lys^13-(p-BthTX-I)2] (I: H-KKYRYHLKPFC-OH / II: H-KKYRYHLKPFC-OH; disulfide I:11-II:11)	128 µM (≈ 379 µg/mL)	256 µM (≈ 759 µg/mL)	128 µM (≈ 379 µg/mL)	256 µM (≈ 759 µg/mL)	256 µM (≈ 759 µg/mL)	512 µM (≈ 1520 µg/mL)	16 µM (≈ 47.4 µg/mL)	8 µM (≈ 23.7 µg/mL)	32 µM (≈ 94.8 µg/mL)	16 µM (≈ 47.4 µg/mL)	64 µM (≈ 190 µg/mL)	>128 µM	32 µM (≈ 94.8 µg/mL)	64 µM (≈ 190 µg/mL)	256 µM (≈ 759 µg/mL)	512 µM (≈ 1520 µg/mL)	Incubation time in human serum after which further degradation products were observed ([1]; mass spectrometry, data not shown): 30 h; Incubation time in human serum after which the peptide remained intact (stable) ([1]; product formed from (p-BthTX-I)2 100 µM, LC/MS and HPLC): 24 h; MIC ([3]; CAMHB, 24 h, 37 °C): 128 µM (≈ 379 µg/mL); MIC ([4]; S. aureus SA33 (MRSA, tigecycline resistant), CAMHB, 24 h, 37 °C): 128 µM (≈ 379 µg/mL)
